This is an account of results in US10381110B2, “Molecules” (University of Dundee, priority 2010, dated 2019).

The target in one assay is T1, Alpha1A (Homo sapiens, UniProt P35348).
T1 sequence (P35348 1-466): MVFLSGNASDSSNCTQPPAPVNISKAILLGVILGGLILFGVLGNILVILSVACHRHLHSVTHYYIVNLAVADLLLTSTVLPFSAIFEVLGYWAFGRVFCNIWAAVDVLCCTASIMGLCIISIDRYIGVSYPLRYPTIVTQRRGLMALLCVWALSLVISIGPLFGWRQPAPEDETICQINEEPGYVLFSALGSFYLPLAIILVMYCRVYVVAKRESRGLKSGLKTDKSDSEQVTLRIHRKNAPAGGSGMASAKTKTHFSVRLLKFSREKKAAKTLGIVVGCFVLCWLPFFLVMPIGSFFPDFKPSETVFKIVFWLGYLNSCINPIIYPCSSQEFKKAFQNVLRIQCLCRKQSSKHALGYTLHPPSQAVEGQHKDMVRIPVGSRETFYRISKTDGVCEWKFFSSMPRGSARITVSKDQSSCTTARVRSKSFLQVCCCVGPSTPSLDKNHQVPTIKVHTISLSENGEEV
Description: Primary radioligand binding assay (NIMH PDSP). The conditions noted are these: primary radiobinding assay, [3H]Prazosin.

The target of a further assay is 5-HT2A (Homo sapiens, UniProt P28223). Kind of assay: Secondary radioligand binding assay (Ki).
Chain of 5-HT2A (P28223 whole entry, species assumed): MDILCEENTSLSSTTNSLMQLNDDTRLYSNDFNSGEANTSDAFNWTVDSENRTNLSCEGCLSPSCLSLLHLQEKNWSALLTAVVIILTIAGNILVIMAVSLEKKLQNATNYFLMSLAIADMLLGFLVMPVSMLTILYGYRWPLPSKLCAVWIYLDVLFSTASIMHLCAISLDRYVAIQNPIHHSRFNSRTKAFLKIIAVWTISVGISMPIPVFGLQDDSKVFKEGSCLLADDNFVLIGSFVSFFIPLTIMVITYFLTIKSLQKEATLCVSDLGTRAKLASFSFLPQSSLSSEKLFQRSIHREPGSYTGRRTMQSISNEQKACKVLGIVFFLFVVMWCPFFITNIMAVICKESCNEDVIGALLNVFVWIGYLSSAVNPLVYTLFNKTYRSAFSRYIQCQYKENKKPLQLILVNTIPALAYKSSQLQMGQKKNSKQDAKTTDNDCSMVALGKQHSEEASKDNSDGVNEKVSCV
Assay [1] concerns the target T2, Alpha1D (Homo sapiens, UniProt P25100).
T2 sequence (P25100 1-572): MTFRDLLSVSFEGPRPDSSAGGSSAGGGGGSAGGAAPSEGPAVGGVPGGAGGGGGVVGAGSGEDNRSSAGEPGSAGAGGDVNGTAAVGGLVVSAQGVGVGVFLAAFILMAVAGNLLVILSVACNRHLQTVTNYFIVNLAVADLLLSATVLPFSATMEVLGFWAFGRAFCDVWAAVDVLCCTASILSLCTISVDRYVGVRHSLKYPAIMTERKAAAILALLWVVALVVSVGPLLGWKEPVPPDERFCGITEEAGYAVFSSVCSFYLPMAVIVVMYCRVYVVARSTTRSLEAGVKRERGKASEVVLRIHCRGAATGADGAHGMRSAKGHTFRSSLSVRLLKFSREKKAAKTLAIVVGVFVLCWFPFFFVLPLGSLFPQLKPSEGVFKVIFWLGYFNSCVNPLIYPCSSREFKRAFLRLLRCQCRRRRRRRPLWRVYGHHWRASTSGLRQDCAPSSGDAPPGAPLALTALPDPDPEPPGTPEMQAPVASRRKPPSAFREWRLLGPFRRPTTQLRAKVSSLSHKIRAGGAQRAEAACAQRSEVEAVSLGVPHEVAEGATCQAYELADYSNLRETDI
Description: Secondary radioligand binding assay (Ki).
Description: (§1) Radioligand is diluted to five times the assay concentration (see Table 18) in Standard Binding Buffer. Typically, the assay concentration of radioligand is a value between one half the KD and the KD of a particular radioligand at its target. 50 μl aliquots of radioligand are dispensed into the wells of a 96-well plate containing 100 μl of Standard Binding Buffer. Then, duplicate 50 μl aliquots of the test and reference compound dilutions are added.
(§2) The 250 μl reactions are incubated at room temperature and shielded from light (to prevent photolysis of light-sensitive ligands) for 1.5 hours, then harvested by rapid filtration onto Whatman GF/B glass fiber filters pre-soaked with 0.3% polyethyleneimine using a 96-well Brandel harverster. Four rapid 500 μl washes are performed with chilled Standard Binding Buffer to reduce non-specific binding. Filters are placed in 6 ml scintillation tubes and allowed to dry overnight. The next day, 4 ml of EcoScint scintillation cocktail (National Diagnostics) are added to each tube. The tubes are capped, labeled, and counted by liquid scintillation counting. […] The filter mats are dried, then scintillant is melted onto the filters and the radioactivity retained on the filters is counted in a Microbeta scintillation counter.
(§3) Raw data (dpm) representing total radioligand binding (i.e. specific+non-specific binding) are plotted as a function of the logarithm of the molar concentration of the competitor (i.e. test or reference compound).
(§4) Adrenergic Receptors: α1A, α1B, α2A, α2B, α2C, β1, β2, β3
(§5) Membrane Fraction Source: Transiently or stably transfected cell lines (e.g. HEK293, COS, CHO, NIH3T3)
(§6) The method is carried out in the manner described for the serotonin receptor assay above, except where described below. Eleven dilutions (5× assay concentration) of the test and reference (see Table 20) compounds are prepared in the appropriate buffer by serial dilution, as previously described. Radioligand is diluted to five times the assay concentration (see Table 21) in the appropriate buffer.
(§7) The 250 μl reactions are incubated at room temperature and shielded from light (to prevent photolysis of light-sensitive ligands) for 1 hour (for α1 receptors, 40 min for α2 receptors, and 1.5 hours for β receptors), then harvested by rapid filtration onto Whatman GF/B glass fiber filters pre-soaked with 0.3% polyethyleneimine using a 96-well Brandel harverster. Four rapid 500-μl washes are performed with chilled distilled water (for α1 and β receptors) or 0.1% polyethyleneimine (for α2 receptors) to reduce non-specific binding. Filters are placed in 6 ml scintillation tubes and allowed to dry overnight and the samples are treated to obtain data as described above.

For another assay, the target named is T3, α1B (Alpha1B) (Homo sapiens, UniProt P35368).
T3 sequence (P35368 1-520): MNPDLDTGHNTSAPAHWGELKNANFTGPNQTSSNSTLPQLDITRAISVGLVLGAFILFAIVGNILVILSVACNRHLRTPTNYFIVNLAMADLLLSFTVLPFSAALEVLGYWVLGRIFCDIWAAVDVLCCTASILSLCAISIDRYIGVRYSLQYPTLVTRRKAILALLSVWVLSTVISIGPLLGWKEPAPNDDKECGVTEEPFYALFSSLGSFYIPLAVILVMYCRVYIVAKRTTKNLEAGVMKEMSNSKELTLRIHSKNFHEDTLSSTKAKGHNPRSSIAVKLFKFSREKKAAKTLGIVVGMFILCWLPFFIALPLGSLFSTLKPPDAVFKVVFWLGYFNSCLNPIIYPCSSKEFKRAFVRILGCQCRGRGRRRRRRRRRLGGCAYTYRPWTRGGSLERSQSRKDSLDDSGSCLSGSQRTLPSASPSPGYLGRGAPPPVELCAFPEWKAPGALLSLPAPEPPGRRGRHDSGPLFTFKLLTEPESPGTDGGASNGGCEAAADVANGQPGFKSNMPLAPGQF
Kind of assay: Secondary radioligand binding assay (Ki).

The next assay has as its target 5-HT1D (Homo sapiens, UniProt P28221). Description: Secondary radioligand binding assay (Ki).
Another assay concerns the target T4, 5HT1a (Homo sapiens, UniProt P08908).
T4 sequence (P08908 1-422): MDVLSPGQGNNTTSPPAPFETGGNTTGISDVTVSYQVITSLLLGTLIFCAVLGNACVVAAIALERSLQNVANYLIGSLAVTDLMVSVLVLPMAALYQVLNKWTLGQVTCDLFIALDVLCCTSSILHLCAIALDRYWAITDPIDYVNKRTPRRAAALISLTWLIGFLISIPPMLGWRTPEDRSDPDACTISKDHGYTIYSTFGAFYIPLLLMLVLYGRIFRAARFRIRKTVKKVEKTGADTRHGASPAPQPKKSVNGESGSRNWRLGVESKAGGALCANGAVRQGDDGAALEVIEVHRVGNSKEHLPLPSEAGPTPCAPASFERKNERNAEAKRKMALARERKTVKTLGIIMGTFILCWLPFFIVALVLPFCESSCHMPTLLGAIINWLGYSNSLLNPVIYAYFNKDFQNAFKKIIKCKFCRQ
Description: Secondary radioligand binding assay (Ki). The conditions noted are these: for α1/D2: Table 24: Selectivity of 5HT1A over average of α1 Receptors; for α1A/D2 / α1B/D2 / α1D/D2: Table 24: Selectivity of 5HT1A over α1 Receptors, ratio of Ki.

Assay [2] has as its target T2, Alpha1D. Kind of assay: Primary radioligand binding assay (NIMH PDSP). The conditions noted are these: primary radiobinding assay, [3H]Prazosin.
For a further assay, the target named is 5-HT7 (Homo sapiens, UniProt P34969). Description: Secondary radioligand binding assay (Ki).
Chain of 5-HT7 (P34969 whole entry, species assumed): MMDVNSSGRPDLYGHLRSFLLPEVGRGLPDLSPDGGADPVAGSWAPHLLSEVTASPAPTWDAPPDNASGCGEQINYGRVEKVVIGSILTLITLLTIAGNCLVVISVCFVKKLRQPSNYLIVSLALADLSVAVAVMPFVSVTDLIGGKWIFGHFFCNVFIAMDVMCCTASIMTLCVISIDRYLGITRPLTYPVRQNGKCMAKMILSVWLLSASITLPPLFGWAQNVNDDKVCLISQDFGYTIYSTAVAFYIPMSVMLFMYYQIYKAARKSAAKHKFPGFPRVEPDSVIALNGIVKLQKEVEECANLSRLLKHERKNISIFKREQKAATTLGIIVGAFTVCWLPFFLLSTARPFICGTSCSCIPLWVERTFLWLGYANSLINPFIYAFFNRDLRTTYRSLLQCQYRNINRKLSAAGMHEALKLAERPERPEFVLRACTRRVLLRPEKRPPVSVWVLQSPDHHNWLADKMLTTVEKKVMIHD
The target of another assay is 5-HT1B (Homo sapiens, UniProt P28222). Description: Secondary radioligand binding assay (Ki).
Chain of 5-HT1B (P28222 whole entry, species assumed): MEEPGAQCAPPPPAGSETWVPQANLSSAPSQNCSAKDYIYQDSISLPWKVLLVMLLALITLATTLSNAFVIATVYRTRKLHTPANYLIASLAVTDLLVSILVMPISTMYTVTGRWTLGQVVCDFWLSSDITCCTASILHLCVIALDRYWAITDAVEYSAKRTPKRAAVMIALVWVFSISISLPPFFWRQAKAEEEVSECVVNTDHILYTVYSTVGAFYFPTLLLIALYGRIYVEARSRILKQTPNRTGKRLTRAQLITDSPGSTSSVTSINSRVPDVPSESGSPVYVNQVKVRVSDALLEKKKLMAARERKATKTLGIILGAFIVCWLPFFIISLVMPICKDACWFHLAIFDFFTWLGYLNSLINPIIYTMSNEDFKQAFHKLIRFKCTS
The target of the next assay is dopamine D1 (Homo sapiens, UniProt P21728). Description: Secondary radioligand binding assay (Ki).
Chain of dopamine D1 (P21728 whole entry): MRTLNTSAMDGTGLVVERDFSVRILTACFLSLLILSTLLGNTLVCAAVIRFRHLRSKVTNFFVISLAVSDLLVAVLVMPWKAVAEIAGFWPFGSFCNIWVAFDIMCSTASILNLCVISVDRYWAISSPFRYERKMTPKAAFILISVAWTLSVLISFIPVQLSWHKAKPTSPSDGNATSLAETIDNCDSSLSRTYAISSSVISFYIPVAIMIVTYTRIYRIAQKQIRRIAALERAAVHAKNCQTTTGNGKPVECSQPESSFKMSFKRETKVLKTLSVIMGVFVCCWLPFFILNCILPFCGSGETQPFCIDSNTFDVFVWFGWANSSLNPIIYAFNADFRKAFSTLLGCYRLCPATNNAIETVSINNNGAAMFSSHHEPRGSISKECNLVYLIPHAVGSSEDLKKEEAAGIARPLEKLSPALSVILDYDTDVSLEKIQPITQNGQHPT
The target of a further assay is dopamine D5 (Homo sapiens, UniProt P21918). Kind of assay: Secondary radioligand binding assay (Ki). The conditions noted are these: read-out: Experimental Receptor Binding Data-Ki D5; Table 25, GPCR panel.
Chain of dopamine D5 (P21918 whole entry): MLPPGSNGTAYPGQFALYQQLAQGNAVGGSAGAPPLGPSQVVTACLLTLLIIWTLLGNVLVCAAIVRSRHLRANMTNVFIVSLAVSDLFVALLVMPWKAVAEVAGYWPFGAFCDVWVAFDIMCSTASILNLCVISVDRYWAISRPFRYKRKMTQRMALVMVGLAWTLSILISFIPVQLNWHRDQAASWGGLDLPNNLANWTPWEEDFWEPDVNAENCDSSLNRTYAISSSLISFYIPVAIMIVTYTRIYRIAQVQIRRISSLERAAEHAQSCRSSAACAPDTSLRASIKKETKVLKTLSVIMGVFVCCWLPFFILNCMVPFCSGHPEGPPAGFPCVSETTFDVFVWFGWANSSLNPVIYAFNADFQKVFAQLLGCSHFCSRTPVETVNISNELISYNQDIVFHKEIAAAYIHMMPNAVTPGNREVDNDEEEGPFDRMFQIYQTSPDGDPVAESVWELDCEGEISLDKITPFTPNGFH
Where [3] appears, read: read-out: Experimental Receptor Binding Data-Ki ALPHA_1D, Table 25, GPCR panel.
Setting [4] is: read-out: Experimental Receptor Binding Data-Ki ALPHA_1B, Table 25, GPCR panel.
[5] abbreviates: read-out: Experimental Receptor Binding Data-Ki D1, Table 25, GPCR panel.

Structures are written as SMILES. Counter-ions that a name gives are not always drawn. Like-named read-outs stand apart in the source and are kept apart here.
For Alpha1A (% inh) in this document: test concentration or dose not given here.

Chain of 5-HT1D (P28221 whole entry, species assumed): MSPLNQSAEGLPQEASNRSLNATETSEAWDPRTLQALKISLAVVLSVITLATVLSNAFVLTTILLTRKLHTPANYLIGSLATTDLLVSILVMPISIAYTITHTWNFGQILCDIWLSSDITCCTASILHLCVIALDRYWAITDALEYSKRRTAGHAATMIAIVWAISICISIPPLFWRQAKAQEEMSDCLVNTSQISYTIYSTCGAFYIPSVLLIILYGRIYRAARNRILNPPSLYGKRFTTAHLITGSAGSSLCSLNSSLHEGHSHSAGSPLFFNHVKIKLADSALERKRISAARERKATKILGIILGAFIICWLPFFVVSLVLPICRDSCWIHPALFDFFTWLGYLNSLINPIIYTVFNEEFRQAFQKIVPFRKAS
Description for 5-HT1B: (§8) Assay Buffer: Standard Binding Buffer (50 mM Tris-HCl, 10 mM MgCl2, 1 mM EDTA, pH 7.4)
(§9) Membrane Fraction Source: Transiently or stably transfected cell lines (e.g., HEK293, COS, CHO, NIH3T3)
as §1, §2, §3
Description for 5-HT1D: as §8, §9, §1, §2, §3
Description for 5-HT2A: as §8, §9, §1, §2, §3
Description for 5-HT7: as §8, §9, §1, §2, §3
Description for 5HT1a: as §8, §9, §1, §2, §3
Description for dopamine D1: as §1, §2, §3
Assay Buffers: Dopamine Binding Buffer (50 mM NaCl, 50 mM HEPES-HCl, 5 mM MgCl2, 0.5 mM EDTA, pH 7.4)
as §5
The method is carried out in the manner described for the serotonin receptor assay above. Eleven dilutions (5× assay concentration) of the test and reference (see Table 19) compounds are prepared in Dopamine Binding Buffer by serial dilution, as previously described. Radioligand is diluted to five times the assay concentration (see Table 20) in Dopamine Binding Buffer.
Description for dopamine D5: as §1
The 250 μl reactions are incubated at room temperature and shielded from light (to prevent photolysis of light-sensitive ligands) for 1.5 hours, then harvested by rapid filtration onto Whatman GF/B glass fiber filters pre-soaked with 0.3% polyethyleneimine using a 96-well Brandel harverster. Four rapid 500 μl washes are performed with chilled Standard Binding Buffer to reduce non-specific binding. Filters are placed in 6 ml scintillation tubes and allowed to dry overnight. The next day, 4 ml of EcoScint scintillation cocktail (National Diagnostics) are added to each tube. The tubes are capped, labeled, and counted by liquid scintillation counting. […] The filter mats are dried, then scintillant is melted onto the filters and the radioactivity retained on the filters is counted in a Microbeta scintillation counter. […]
Description for α1B (Alpha1B): as §1, §2, §3, §4, §5, §6, §7

Take `COc1ccc2c(c1)C(=O)N(CCCN1CCN(c3ccccc3OC)CC1)C2` [GFR-VII-273]: the “Alpha1A (% inh)” value on Alpha1A is 102.2 % inh. Moreover, the Ki was 956 nM on 5-HT2A; 81.1 nM at Alpha1D [1] (setting [3]); 81.1 nM at Alpha1D [1] (read-out: Kiα1D); 323 nM on α1B (Alpha1B) (setting [4]); 323 nM at α1B (Alpha1B) (read-out: Kiα1B); 1000 nM on 5-HT1D. Also, the results for the Ki on 5HT1a, on 5-HT7 and on 5-HT1B were 6.5 nM, 545 nM and 362 nM, respectively. Besides, the α1/D2 on 5HT1a was 24.0. Moreover, the α1A/D2 on 5HT1a worked out at 10.0. Also, the α1B/D2 on 5HT1a was 49.7. In addition, the α1D/D2 at 5HT1a is listed as 12.5. Moreover, the “Alpha1D (% inh)” value on Alpha1D [2] was determined as 99.3 % inh.

In the case of `COc1ccc2c(c1)C(=O)N(CCN1CCN(c3ccccc3OC)CC1)C2` [GFR-VII-280-HCl], the “Alpha1A (% inh)” value on Alpha1A was determined as 101.5 % inh. Also, the Ki worked out at 5.1 nM on Alpha1D [1]; 29.1 nM at α1B (Alpha1B); 176 nM at 5-HT1D; 2.4 nM at 5HT1a; 529 nM on 5-HT7; 378 nM on 5-HT1B. On 5HT1a, this molecule returned a α1/D2 of 5.9. Besides, the α1A/D2 at 5HT1a is reported as 3.5. The α1B/D2 on 5HT1a worked out at 12.1. Moreover, the α1D/D2 at 5HT1a is reported as 2.1. The “Alpha1D (% inh)” value on Alpha1D [2] turned out to be 98.7 % inh.

Turning to `COc1ccc2c(c1)C(=O)N(CCN1CCN(c3ccccc3OC)CC1)C2` [GFR-VII-280], the “Alpha1A (% inh)” value on Alpha1A is 101.2 % inh. For the same molecule, the Ki at Alpha1D [1] (setting [3]) is 12.4 nM; at Alpha1D [1] (read-out: Kiα1D), 12.4 nM; on α1B (Alpha1B) (setting [4]), 38.7 nM; at α1B (Alpha1B) (read-out: Kiα1B), 38.7 nM; on 5-HT1D (read-out: Experimental Receptor Binding Data-Ki 5HT1D, Table 25, GPCR panel), 139 nM; on 5HT1a (read-out: Experimental Receptor Binding Data-Ki 5HT1A, Table 25, GPCR panel), 3.5 nM. The Ki was found to be 3.5 nM on 5HT1a (read-out: Ki 5HT1A) and 306 nM on 5-HT1B (read-out: Experimental Receptor Binding Data-Ki 5HT1B, Table 25, GPCR panel). The same molecule came in with a α1/D2 on 5HT1a of 6.4. Also, at 5HT1a, the α1A/D2 amounted to 4.5. Besides, at 5HT1a, the α1B/D2 worked out at 11.1. Moreover, on 5HT1a, the α1D/D2 turned out to be 3.5. The “Alpha1D (% inh)” value at Alpha1D [2] is 97.3 % inh.

Take `COc1cc2c(cc1OC)C(=O)N(CCCCN1CCN(c3ccccc3OC)CC1)C2` [GFR-VII-285]: the “Alpha1A (% inh)” value on Alpha1A came to 102.7 % inh. In addition, the Ki at 5-HT2A turned out to be 270 nM; on dopamine D1 (setting [5]) it was 531 nM; at Alpha1D [1] (setting [3]) it was 4.4 nM; at Alpha1D [1] (read-out: Kiα1D) it was 4.4 nM; at α1B (Alpha1B) (setting [4]), 19.3 nM; at α1B (Alpha1B) (read-out: Kiα1B), 19.3 nM. In addition, the Ki at 5-HT1D turned out to be 298 nM; on dopamine D5, 1890 nM; on 5HT1a it was 23 nM; on 5-HT7, 228 nM; on 5-HT1B, 130 nM. This molecule gave a α1/D2 on 5HT1a of 0.4. Also, the α1A/D2 at 5HT1a is listed as 0.04. In addition, the α1B/D2 at 5HT1a is 0.8. The α1D/D2 on 5HT1a is listed as 0.2. In addition, the “Alpha1D (% inh)” value at Alpha1D [2] came to 96.8 % inh.

For `COc1ccc2c(c1)CN(CCCN1CCN(c3ccccc3OC)CC1)C2=O` [GFR-VII-290], at Alpha1A, the “Alpha1A (% inh)” value was determined as 99.1 % inh. Besides, the Ki on 5-HT2A stood at 1000 nM; on dopamine D1 (setting [5]) it was 2730 nM; at Alpha1D [1] (setting [3]), 56 nM; at Alpha1D [1] (read-out: Kiα1D), 56 nM; on α1B (Alpha1B) (setting [4]), 608 nM; at α1B (Alpha1B) (read-out: Kiα1B), 608 nM. Further, the Ki came to 829 nM at 5-HT1D, 19 nM on 5HT1a (read-out: Ki 5HT1A) and 732 nM on 5-HT7. The molecule also yielded a α1/D2 at 5HT1a of 12.7. For the same molecule, the α1A/D2 on 5HT1a is recorded as 3.2. Moreover, the α1B/D2 on 5HT1a worked out at 32.0. Besides, the α1D/D2 at 5HT1a was determined as 2.9. The “Alpha1D (% inh)” value at Alpha1D [2] turned out to be 100.5 % inh.

As to `CC1Cc2ccccc2N1C(=O)CN1CCN(Cc2ccccc2)CC1` (stereo not drawn) [STT-00185638, 2-[-4-(benzyl)-piperazin-1-yl]-1-(2-methy-2,3-dihydro-indol-1-yl)-ethanone], on Alpha1A, the “Alpha1A (% inh)” value is 69.1 % inh. The Ki on dopamine D1 came to 6360 nM; on 5HT1a, 7080 nM; on 5-HT7 it was 4360 nM. In addition, the “Alpha1D (% inh)” value on Alpha1D [2] came to 42.8 % inh.
